The test system of this test is CEM cells HIV-1 protection, formazan growth assay. Description: NCI AIDS Antiviral Assay. Conditions: for IC50: measured here: growth of uninfected CEM cells. The method in brief: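 Soluble formazan readout of cell growth; CEM cells ± HIV-1; 5 drug concs. ≥50% protection → retest; ≥50% again = moderately active; reproducible 100% = confirmed active.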

Activity calls are given as the source filed them.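 The calls were made as follows: active = compounds giving half or more protection of infected cells from virus-caused growth loss, again on retest; inactive = the rest.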

Experimental findings from PubChem BioAssay AID179 (DTP/NCI, 2004) are described below.

Usually EC50 stands for the midpoint of the concentration-response curve. In general, IC50 refers to the concentration at which inhibition is half-maximal. Low readings indicate inhibition by little substance, high ones a need for much substance.

With `CCOC(=O)c1nc2ccc(C(F)(F)F)cc2nc1Oc1cc(OC)c(OC)c(OC)c1`, the EC50 was more than 100 µM and the half-inhibitory concentration (IC50) is more than 100 µM.
With `Nc1ccc(C2c3ccccc3Oc3ccccc32)cc1`, the EC50 is more than 200 µM and the half-inhibitory concentration (IC50) was 30.9 µM.
On the same counts, the results for `CC12C(=O)OC(=O)C1(C)C1C=CC2O1` (configuration not stated) are more than 200 µM and 132 µM.
On the same counts, the results for `Nc1nc2c(c(=O)[nH]1)CNC2=O` are more than 200 µM and more than 200 µM.
In the case of `O=C1NC(=S)S/C1=C\c1ccc2c(c1)OCO2`, the EC50 was more than 200 µM and the half-inhibitory concentration (IC50) came out at 85.1 µM.
As to `CC(C)N(C(=O)C12C3(C(=O)C(C)(C)C)C4C5(C#N)C3C1(C(=O)C(C)(C)C)C5C42C(=O)C(C)(C)C)C(C)C` (configuration not stated), the EC50 was more than 151 µM and the IC50 is more than 151 µM.
Take `COC(=O)c1ccc2n1C1CC3CC(CC2C3)C1`: the EC50 is more than 200 µM and the concentration for half-maximal inhibition (IC50) is 87.1 µM.
As for `CS(=O)(=O)NC1C(=O)c2ccccc2OC1c1ccccc1` (configuration not stated), the EC50 is more than 200 µM and the IC50 was more than 200 µM.
In the case of `CCCc1cc2c(=O)c(C(=O)OC)c[nH]c2cc1N(CC)CC`, the EC50 is more than 200 µM and the IC50 was more than 200 µM.
Consider `CN1C(=O)N(c2ccccc2)C2(CCN(CC3COc4ccccc4O3)CC2)C1=O` (configuration not stated), for which the EC50 is more than 200 µM and the IC50 was more than 200 µM.
For the compound `Cc1ccc(C)c(N2C(=O)C(=O)C(c3nc4ccccc4o3)C(=O)C2=O)c1`, the result was inactive.
Take `COc1ccc(/C=C/C(=O)c2cc(OC)cc(OC)c2)cc1`: the EC50 is more than 200 µM and the IC50 was 0.955 µM.
Consider `CC1=Nc2nc(=N)nc3cccc(n23)N1`, for which the EC50 is more than 200 µM and the half-maximal inhibitory concentration (IC50) is 170 µM.
In the case of `C=C1NC(=O)C(CC(C(=O)C(=O)Nc2c(C)cccc2C(C)(C)C)C(=O)c2ccc3ccccc3c2)C(=O)N1` (configuration not stated), the EC50 is more than 178 µM and the IC50 is more than 178 µM.
On to `CCC(=O)c1ccc2[nH]c3c(C)c4c(=O)cc(C)[nH]c4c(C)c3c2c1`, for which the EC50 was more than 100 µM and the IC50 was more than 100 µM.
`NNC(=S)N/N=C(/C(=O)Nc1ccc([N+](=O)[O-])cc1)c1nc2ccc([N+](=O)[O-])cc2[nH]c1=O`: the EC50 was more than 145 µM and the IC50 is more than 145 µM.
Take `Nc1nc(Cl)cc(Oc2ccc(Cl)cc2)n1`: the EC50 is more than 200 µM and the 50% inhibitory concentration (IC50) was more than 200 µM.
For the compound `C=C(C(=C)P(=S)(C(C)C)C(C)C)P(=S)(C(C)C)C(C)C`, the EC50 was more than 74.1 µM and the half-maximal inhibitory concentration (IC50) is more than 74.1 µM.
Take `CCOC(=O)NC(NC(C)CC)(C(F)(F)F)C(F)(F)F` (configuration not stated): the EC50 was more than 200 µM and the IC50 was more than 200 µM.
`COc1ccc2c(-c3ccc(O)cc3)c(Oc3ccc(Cl)cc3)c(=O)oc2c1`: the EC50 was more than 200 µM and the IC50 was found to be 19.1 µM.
For the compound `C=CCOCn1cc(C)c(=O)[nH]c1=O`, the EC50 was more than 200 µM and the IC50 was more than 200 µM.
Turning to `CC(=O)C1=CCC2c3[nH]c4ccccc4c3CCN2C1` (configuration not stated), the EC50 is more than 70.8 µM and the IC50 is more than 70.8 µM.
As to `CCOC(=O)c1cc2c(nc1N)-c1ncccc1CC2`, the EC50 was more than 19.5 µM and the half-maximal inhibitory concentration (IC50) amounted to 0.219 µM.
On the same counts, the results for `Fc1ccc(CN2COc3c(cc(Cl)c4cccnc34)C2)cc1` are more than 200 µM and 0.977 µM.
On to `N#CCCN(CCC#N)c1ccc(/C=C2\N=C(c3ccccc3)N(c3ccccn3)C2=O)cc1`, for which the EC50 was more than 200 µM and the IC50 is more than 200 µM.
Consider `O=c1[nH]cc(S)c(=O)[nH]1`, for which the EC50 was 151 µM and the IC50 was more than 200 µM.
For `O=C(O)CN1C(=O)C(=O)c2cc([N+](=O)[O-])ccc21`, the EC50 was more than 200 µM and the IC50 was more than 200 µM.
With `O=C(NCCN1CCCC1)c1cn2c(ccc3sc4ccccc4c(=O)c32)n1`, the EC50 was more than 200 µM and the IC50 is 1.26 µM.
`O=[N+]([O-])c1ccc(N=Nc2c(O)c(N=Nc3cc([N+](=O)[O-])cc([N+](=O)[O-])c3O)cc(N=Nc3cc(S(=O)(=O)O)cc4cc(S(=O)(=O)O)cc(O)c34)c2O)cc1`: the EC50 was 16.6 µM and the half-inhibitory concentration (IC50) is 50.1 µM.
As for `CCn1c(C)nc([N+](=O)[O-])c1Sc1ncc[nH]1`, the EC50 was more than 977 µM and the IC50 stood at 17.8 µM.
Turning to `O=c1[nH]c(-c2nc3ccccc3c(=O)[nH]2)nc2ccccc12`, the EC50 was more than 32.4 µM and the IC50 was more than 32.4 µM.
Regarding `Cc1c(C)c(C)c(-n2c(=O)n(C)c(=O)n2C(C)(C)C)c(C)c1C`, the EC50 is more than 200 µM and the half-inhibitory concentration (IC50) came out at 3.31 µM.
For the compound `COC(=O)C1=CCC(n2cc(C)c(=O)[nH]c2=O)CC1` (configuration not stated), the EC50 was more than 257 µM and the half-inhibitory concentration (IC50) is more than 257 µM.
Turning to `CC(=O)NC(CCCOC(C)=O)C(=O)NC(CCCOC(C)=O)C(=O)NC(CCCOC(C)=O)C(=O)NC(Cc1ccc([N+](=O)[O-])cc1)C(=O)NCC(=O)OCc1ccccc1` (configuration not stated), the EC50 is more than 200 µM and the half-maximal inhibitory concentration (IC50) was more than 200 µM.
Consider `CC(N)CNCC(C)N` (configuration not stated), for which the EC50 is more than 200 µM and the 50% inhibitory concentration (IC50) is more than 200 µM.
Take `CN(CCO)c1nc2c(c(=O)[nH]1)CCC2`: the EC50 was more than 240 µM and the IC50 was more than 240 µM.
As for `C/C(CC(=O)Nc1cc(C)ccc1C)=N/N=C(N)N`, the EC50 was more than 52.5 µM and the IC50 is more than 52.5 µM.
Turning to `CC(C)(C)NC(=O)C12C3C4C1C1C2C3C41C(=O)NC(C)(C)C` (configuration not stated), the result was inactive.
In the case of `CCCCCCCCCCCCCCCCCCN1CN(CO)C(=O)N(CO)C1`, the EC50 was more than 200 µM and the IC50 is 166 µM.
Regarding `CC(C)(C)C(=O)/C=C/c1cccc(Oc2ccccc2)c1`, the EC50 was more than 18.6 µM and the IC50 is more than 18.6 µM.
`O=C1OCC/C1=C\c1ccc2c(c1)OCO2`: the EC50 was more than 45.7 µM and the IC50 is more than 45.7 µM.
Take `Cc1cccc(C)c1NC(=O)C(=O)CC(=O)c1sc(Nc2c(C)cccc2C)nc1C`: the EC50 was more than 200 µM and the IC50 is more than 200 µM.
On to `O=[N+]([O-])c1ccccc1SS(=O)(=O)c1ccc(Cl)cc1`, for which the EC50 is more than 79.4 µM and the IC50 worked out at 44.7 µM.
In the case of `ClC1=C(Cl)C(Cl)(Cl)c2c3c(c4c(c21)C(Cl)(Cl)C(Cl)=C4Cl)C(Cl)(Cl)C(Cl)=C3Cl`, the EC50 was more than 8.71 µM and the IC50 is more than 8.71 µM.
On to `S=C(N/N=C/c1ccccn1)Nc1ccc(Cl)cc1`, for which the EC50 was more than 2 µM and the IC50 amounted to 0.0891 µM.
With `CCOP(=O)(OCC)C(C)(CC)NC1=NC(C(F)(F)F)(C(F)(F)F)NC(=O)N1` (configuration not stated), the EC50 is more than 200 µM and the IC50 is more than 200 µM.
As to `O=C1OC(OC2OC(=O)c3ccccc32)c2ccccc21` (configuration not stated), the EC50 was more than 200 µM and the IC50 was more than 200 µM.
Regarding `Oc1ccc(-c2nn3c(CCCCCCCCc4nnc5sc(-c6ccc(O)cc6)nn45)nnc3s2)cc1`, the EC50 is 145 µM and the IC50 was more than 200 µM.
As for `CCOC1N(C2C=CC(CO)O2)C(=O)NC(=O)C1(C)Br` (configuration not stated), the EC50 is more than 13.5 µM and the half-inhibitory concentration (IC50) is more than 13.5 µM.
As for `C=Cc1cc[n+](Cc2ccc(C[n+]3ccc(C=C)cc3)cc2)cc1`, the concentration for a half-maximal effect (EC50) was more than 166 µM and the IC50 worked out at 85.1 µM.
In the same order, the values of `COc1ccc(C(CC(=O)O)CC(=O)O)cc1[N+](=O)[O-]` are more than 200 µM and more than 200 µM.
On to `CN=C(N)NC`, for which the EC50 was more than 1480 µM and the half-inhibitory concentration (IC50) was more than 1480 µM.
For the compound `CN(CC#N)[C@H]1CCC[C@]1(O)/C=C/[Si](C)(C)C`, the EC50 was more than 28.8 µM and the 50% inhibitory concentration (IC50) was more than 28.8 µM.
With `Nc1nc2c(ncn2C2CC(CO)C(CO)C2)c(=O)[nH]1` (configuration not stated), the EC50 is more than 224 µM and the half-maximal inhibitory concentration (IC50) is more than 224 µM.
For the compound `Cn1ccc2[nH]c(=O)[nH]c(=S)c21`, the EC50 is more than 200 µM and the IC50 was more than 200 µM.
With `CC(=O)Nc1ccc(OCC(O)CO)cc1` (configuration not stated), the EC50 was more than 1120 µM and the half-maximal inhibitory concentration (IC50) is 832 µM.
On the same counts, the results for `O=P1(c2ccccc2)C(c2ccccc2)=CC=C1c1ccccc1` are more than 200 µM and 7.41 µM.
In the same order, the values of `CCc1nc2ccc(N=Nc3c(O)ccc4ccccc34)cc2[nH]1` are more than 58.9 µM and 24.5 µM.
For the compound `COc1ccc(/C=C2\CN(C)CC3=C2OC(N)=C(C#N)C3c2ccc(OC)cc2)cc1` (configuration not stated), the EC50 was more than 200 µM and the IC50 worked out at 19.1 µM.
On to `COc1ccc(/C(=N\NC(=O)C(N)=O)C(c2ccc(OC)cc2)C2(O)C(=O)Nc3c(Cl)cccc32)cc1` (configuration not stated), for which the EC50 was more than 18.2 µM and the IC50 is more than 18.2 µM.
Turning to `O=C(Nc1ccc(/C=C\c2ccc(NC(=O)c3ccc4ccccc4c3O)cc2S(=O)(=O)O)c(S(=O)(=O)O)c1)c1ccc2ccccc2c1O`, the EC50 was 126 µM and the IC50 was more than 200 µM.
Regarding `CC1=Nc2ccccc2C1C(Cc1ccccc1N)c1c(C)[nH]c2ccccc12` (configuration not stated), the outcome was inactive.
Consider `Clc1ccc(/C=C/c2nc3ccccc3s2)cc1Cl`, for which the EC50 was more than 200 µM and the IC50 is 83.2 µM.
Regarding `CCOC(=O)c1nc2ccccc2nc1Nc1ccc(C(=O)OC)s1`, the EC50 is more than 200 µM and the IC50 is more than 200 µM.
Consider `CC/C(SC)=[N+](\C)[O-]`, for which the EC50 is more than 955 µM and the IC50 amounted to 174 µM.
For `O=c1c(O)c(-c2cc(O)c(O)c(O)c2)oc2cc(O)ccc12`, the EC50 was more than 832 µM and the IC50 was 11.7 µM.
In the same order, the values of `O=C1Sc2ccc(Br)cc2C(=O)N2CSCC12` (configuration not stated) are more than 200 µM and more than 200 µM.
For the compound `CC(Oc1ccc(OCC2CCCCC2)cc1)C(=O)NCCO` (configuration not stated), the EC50 is more than 295 µM and the IC50 was 41.7 µM.
Consider `COc1cc(C)cc2c(-c3ccc(O)c4c(OC)cc(C)cc34)ccc(O)c12`, for which the EC50 was more than 100 µM and the IC50 was 2.95 µM.
Take `CC(=O)c1sc2n(C)c(=O)c3ccccc3[n+]2c1C`: the EC50 was more than 200 µM and the concentration for half-maximal inhibition (IC50) is more than 200 µM.
On to `CCc1c(Cc2ccccc2)n(COCCO)c(=O)[nH]c1=O`, for which the half-maximal effective concentration (EC50) is 9.55 µM and the IC50 was more than 200 µM.
In the case of `CCOC(=O)C1N(S(=O)(=O)c2ccc(C)cc2)CCC12C(c1ccc(OC)cc1)NC1CCCCC12` (configuration not stated), the result was inactive.
As for `Cc1cc(C)c2c(c1)CC2(Cl)Cl`, the EC50 is more than 178 µM and the IC50 was more than 178 µM.
